# Test results from patent US9629828B2, “Methods of treating traveler's diarrhea and hepatic encephalopathy” (priority 2008, dated 2017).
# Several values for one entry are separate records, joined by “and”; a condition that tells them apart may be missing. Identical values can stand only once. Entries after “also recorded” stand apart in the source; their conditions may differ.
# Assays:
# [1] = test system: subjects in remission from hepatic encephalopathy (HE); assay: First study: Conn score (time to any increase, change from baseline); assay type: in vivo, human; settings: for Event probability (increase in Conn score during the treatment interval) / Probability of no increase in Conn score: Kaplan-Meier; for Event probability (increase in Conn score during the treatment interval) / Probability of no increase in Conn score / Cumulative number of events (increase in Conn score) / Number of events (increase in Conn score): ITT, N = 140
# Description: The scale used in the Conn scoring system is provided below. • Grade 0=No personality or behavioral abnormality detected • Grade 1=Trivial lack of awareness, euphoria or anxiety; shortened attention span; impairment of addition or subtraction • Grade 2=Lethargy; disorientation for time; obvious personality change; inappropriate behavior • Grade 3=Somnolence to semi-stupor, responsive to stimuli; confused; gross disorientation; bizarre behavior • Grade 4=Coma; unable to test mental state
# Change in mental status was measured by the Conn score (also known as the West Haven score). The Conn score has been widely used as a measure of mental state in HE studies and is based on the criteria of Parsons-Smith as modified by Conn. The scale used in the Conn scoring system is described above.
# Subjects who discontinued prior to experiencing an increase in Conn score and prior to completion of the 6-month treatment period were censored at the time of discontinuation.
# [2] = test system: subjects in remission from hepatic encephalopathy (HE); assay: First study: critical flicker frequency (CFF) test; assay type: in vivo, human; settings: for Critical flicker frequency test: r9 Mean, r11 Median, r12 Min, r13 Max; for Mean (SD) change in CFF result: baseline to end of treatment
# Description: The Critical Flicker Frequency (CFF) was assessed for each subject at screening, baseline, visits 3 through 14 and the end of study visit using the Lafayette Flicker Fusion (Lafayette Instrument Company, Inc). Circular light pulses with a 1:1 ratio between the visual impulse and the interval were used with decreasing frequency in gradual steps of 0.5 to 0.1 Hz/second. The frequency of the white light, which is initially generated as a high-frequency pulse (50 Hz) and which gives the patient the impression of a steady light, was reduced gradually until the patient had the impression that the steady light had changed to a flicker. The patient registered this change by pressing a hand-held switch. […] The process was conducted in a quiet, semi-darkened room without distracting noises and took about 10 minutes.
# The critical flicker frequency (CFF) was assessed for each subject using a specialized CFF instrument. The CFF is the frequency at which the subject observes a constant light transition to a flickering light and is measured in Hertz (Hz). CFF is an objective assessment of mental status.
# The CFF was measured on a continuous scale and was the mean of 8 separate fusion-to-flicker transition tests performed in rapid succession.
# Mean values and mean changes from baseline in blood ammonia concentration and critical flicker frequency values were collected. Analyses of blood ammonia concentrations and critical flicker frequency values were based upon quantitative values (not qualitative grades). Treatment differences for mean change from baseline in these parameters was estimated using a mixed effects model with fixed effects for time and baseline value.
# [3] = test system: patients with hepatic encephalopathy; assay: First study: adverse events, rifaximin 550 mg BID; assay type: in vivo, human
# Description: Ninety-one percent of patients in the trial were taking lactulose concomitantly. […] (These include adverse events that may be attributable to the underlying disease.)
# The following includes adverse events occurring at a greater incidence than placebo, regardless of causal relationship to drug exposure.
# A total of 79.9% of subjects (239 of 299) experienced TEAEs during the course of the study.
# [4] = both, human, in vivo
# Description: Two studies evaluated the pharmacokinetics of rifaximin in patients with hepatic impairment. […] Because of the limited systemic absorption of rifaximin, no specific dosing adjustments are recommended for patients with hepatic insufficiency.
# A pharmacokinetic investigation was performed in subjects with HE in a dose-finding study.
# P-gp transporter = P-gp transporter (Homo sapiens, UniProt P08183); assay: In vitro P-gp transporter inhibition; assay type: in vitro ADME; settings: 50 μM
# P-gp transporter, sequence (P08183 whole entry): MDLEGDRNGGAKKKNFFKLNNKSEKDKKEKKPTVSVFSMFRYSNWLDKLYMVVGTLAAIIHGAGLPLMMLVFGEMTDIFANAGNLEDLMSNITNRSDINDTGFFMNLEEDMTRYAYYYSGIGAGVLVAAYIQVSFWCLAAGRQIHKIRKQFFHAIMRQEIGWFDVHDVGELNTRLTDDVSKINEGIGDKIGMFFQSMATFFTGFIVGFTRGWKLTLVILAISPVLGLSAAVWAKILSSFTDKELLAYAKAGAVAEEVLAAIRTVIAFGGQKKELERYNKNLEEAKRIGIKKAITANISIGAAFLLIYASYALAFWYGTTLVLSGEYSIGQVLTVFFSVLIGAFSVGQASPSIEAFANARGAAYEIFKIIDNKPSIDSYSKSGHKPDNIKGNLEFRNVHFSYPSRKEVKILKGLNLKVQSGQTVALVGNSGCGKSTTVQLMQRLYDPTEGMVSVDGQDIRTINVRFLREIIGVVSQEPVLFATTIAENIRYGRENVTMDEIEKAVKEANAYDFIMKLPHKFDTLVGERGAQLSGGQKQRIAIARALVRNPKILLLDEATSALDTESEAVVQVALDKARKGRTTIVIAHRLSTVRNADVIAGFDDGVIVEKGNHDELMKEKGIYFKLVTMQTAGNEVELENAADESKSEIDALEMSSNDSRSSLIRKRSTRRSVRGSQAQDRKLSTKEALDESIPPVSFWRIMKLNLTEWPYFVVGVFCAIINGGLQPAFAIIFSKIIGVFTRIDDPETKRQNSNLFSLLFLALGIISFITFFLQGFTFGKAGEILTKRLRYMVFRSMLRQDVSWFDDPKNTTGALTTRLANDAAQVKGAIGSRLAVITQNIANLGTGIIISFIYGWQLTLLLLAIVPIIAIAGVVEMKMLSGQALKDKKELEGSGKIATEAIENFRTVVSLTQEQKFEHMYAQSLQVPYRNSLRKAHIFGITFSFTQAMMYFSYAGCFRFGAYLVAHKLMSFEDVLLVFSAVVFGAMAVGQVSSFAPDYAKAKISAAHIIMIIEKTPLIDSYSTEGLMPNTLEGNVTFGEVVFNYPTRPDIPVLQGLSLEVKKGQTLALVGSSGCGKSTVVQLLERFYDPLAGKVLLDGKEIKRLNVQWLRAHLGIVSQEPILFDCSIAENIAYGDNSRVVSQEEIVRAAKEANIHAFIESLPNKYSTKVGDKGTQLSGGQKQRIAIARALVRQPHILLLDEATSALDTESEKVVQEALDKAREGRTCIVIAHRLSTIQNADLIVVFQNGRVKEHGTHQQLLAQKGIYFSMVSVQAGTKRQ
# Tg.rasH2 mice = settings: Tg.rasH2, mouse, in vivo, 26 weeks
# patients with HE = assay: Rifaximin 1200 mg/day: effect on blood ammonia and HE grade (50 patients); assay type: in vivo, human; settings: for effect on HE grade: 1200 mg/day; for effect on blood ammonia: 1200 mg/day for 5-10 days
# Description: Correlation between ammonia reduction over time and HE was examined.
# While discrete blood ammonia concentrations may be variable, serial measurements in individual patients have been associated with HE severity.
# Shigella flexneri 2a = assay: Open-label Shigella flexneri 2a challenge study; assay type: in vivo, human; settings: 13 treated subjects, 200 mg every 8 hours 3 days
# rabbits = settings: rabbit, in vivo
# [5] = test system: subjects with a history of recurrent, overt, episodic HE; assay: Second study: changes in Conn scores and asterixis grades; assay type: in vivo, human; settings: 266 subjects
# CYP3A4 = assay: Clinical drug interaction: rifaximin 550 mg TID on oral midazolam
# [6] = treatment interval 0 to <28 days
# [7] = treatment interval 28 to <56 days
# [8] = treatment interval 56 to <84 days
# [9] = treatment interval 84 to <140 days
# [10] = treatment interval 140 to <168 days
smiles,measurement,setting,value
"CO[C@H]1/C=C/O[C@@]2(C)Oc3c(C)c(O)c4c(O)c(c5c(nc6cc(C)ccn65)c4c3C2=O)NC(=O)/C(C)=C\C=C\[C@H](C)[C@H](O)[C@@H](C)[C@@H](O)[C@@H](C)[C@H](OC(C)=O)[C@@H]1C [rifaximin, (2S,16Z,18E,20S,21S,22R,23R,24R,25 S,26S,27S,28E)-5,6,21,23,25-pentahydroxy-27-methoxy-2,4,11,16,20,22,24,26-octamethyl-2,7-(epoxypentadeca-[1,11,13]trienimino)benzofuro[4,5-e]pyrido[1,2-á]-benzimidazole-1,15(2H)-dione,25-acetate]",Event probability (increase in Conn score during the treatment interval),[1]; [6],0.012
same,Probability of no increase in Conn score,[1]; [6],1.0000
same,Event probability (increase in Conn score during the treatment interval),[1]; [7],0.04
same,Probability of no increase in Conn score,[1]; [7],0.8777
same,Event probability (increase in Conn score during the treatment interval),[1]; [8],0.08
same,Probability of no increase in Conn score,[1]; [8],0.8407
same,Event probability (increase in Conn score during the treatment interval),[1]; [9],0.05
same,Probability of no increase in Conn score,[1]; [9],0.7713
same,Event probability (increase in Conn score during the treatment interval),[1]; [10],0
same,Probability of no increase in Conn score,[1]; [10],0.7302
same,Event probability (increase in Conn score during the treatment interval),[1]; treatment interval ≧168 days,0.03
same,Probability of no increase in Conn score,[1]; treatment interval ≧168 days,0.7302
same,Survival,"[1]; any increase in Conn score, days r10-r15 as E1001",1.0000 and 0.8777 and 0.8407 and 0.7713 and 0.7302
same,subjects with Conn score changes of −1 or no change,[1]; baseline to end of treatment,77.1%
same,"prevention of worsening of Conn score, times versus placebo",[1]; in vivo,2.46 times
same,reduction in risk of first worsening in Conn Score,[1]; in vivo,54%
same,subjects with increases in Conn score,[1]; in vivo,37 of 140
same,time to first increase in Conn scores vs placebo (FIG. 4),[1]; in vivo,increased time to the first increase in Conn scores
same,Cumulative number of events (increase in Conn score),[1]; [6],17
same,Number of events (increase in Conn score),[1]; [6],17
same,Cumulative number of events (increase in Conn score),[1]; [7],22
same,Number of events (increase in Conn score),[1]; [7],5
same,Cumulative number of events (increase in Conn score),[1]; [8],31
same,Number of events (increase in Conn score),[1]; [8],9
same,Cumulative number of events (increase in Conn score),[1]; [9],36
same,Number of events (increase in Conn score),[1]; [9],5
same,Cumulative number of events (increase in Conn score),[1]; [10],36
same,Number of events (increase in Conn score),[1]; [10],0
same,Cumulative number of events (increase in Conn score),[1]; treatment interval ≧168 days,37
same,Number of events (increase in Conn score),[1]; treatment interval ≧168 days,1
same,Mean (SD) CFF result,[2]; Baseline,36.90 (5.47) Hz
same,Critical flicker frequency test,"[2]; Day 140, mean",38.7 Hz
same,Critical flicker frequency test,"[2]; Day 140, median",38.9 Hz
same,Critical flicker frequency test,"[2]; EOT, median",37.8 Hz
same,Mean (SD) CFF result,[2]; End of treatment,37.81 (4.88) Hz
same,Mean (SD) change in CFF result,[2],0.945 (±4.75) Hz
same,Mean (SD) change in CFF result,[2]; listed as Rifaximin,0.945 (4.75) Hz
same,improvement in CFF results compared with placebo,[2]; in vivo,statistically significant greater improvement
same,Abdominal distension,"[3]; 550 mg BID, N = 140",11 (7.9%) Number (%) of Patients
same,Abdominal pain,"[3]; 550 mg BID, N = 140",12 (8.6%) Number (%) of Patients
same,Abdominal pain upper,"[3]; 550 mg BID, N = 140",9 (6.4%) Number (%) of Patients
same,Anemia,"[3]; 550 mg BID, N = 140",11 (7.9%) Number (%) of Patients
same,Arthralgia,"[3]; 550 mg BID, N = 140",9 (6.4%) Number (%) of Patients
same,Ascites,"[3]; 550 mg BID, N = 140",16 (11.4%) Number (%) of Patients
same,Back pain,"[3]; 550 mg BID, N = 140",9 (6.4%) Number (%) of Patients
same,Constipation,"[3]; 550 mg BID, N = 140",9 (6.4%) Number (%) of Patients
same,Cough,"[3]; 550 mg BID, N = 140",10 (7.1%) Number (%) of Patients
same,Depression,"[3]; 550 mg BID, N = 140",10 (7.1%) Number (%) of Patients
same,Dizziness,"[3]; 550 mg BID, N = 140",18 (12.9%) Number (%) of Patients
same,Dyspnea,"[3]; 550 mg BID, N = 140",9 (6.4%) Number (%) of Patients
same,Edema peripheral,"[3]; 550 mg BID, N = 140",21 (15.0%) Number (%) of Patients
same,Fatigue,"[3]; 550 mg BID, N = 140",17 (12.1%) Number (%) of Patients
same,Insomnia,"[3]; 550 mg BID, N = 140",10 (7.1%) Number (%) of Patients
same,Muscle spasms,"[3]; 550 mg BID, N = 140",13 (9.3%) Number (%) of Patients
same,Nasopharyngitis,"[3]; 550 mg BID, N = 140",10 (7.1%) Number (%) of Patients
same,Nausea,"[3]; 550 mg BID, N = 140",20 (14.3%) Number (%) of Patients
same,Pruritus,"[3]; 550 mg BID, N = 140",13 (9.3%) Number (%) of Patients
same,Pyrexia,"[3]; 550 mg BID, N = 140",9 (6.4%) Number (%) of Patients
same,Rash,"[3]; 550 mg BID, N = 140",7 (5.0%) Number (%) of Patients
same,TEAE ascites,[3]; first study,11.4%
same,TEAE diarrhea,[3]; first study,10.7%
same,TEAE dizziness,[3]; first study,12.9%
same,TEAE fatigue,[3]; first study,12.1%
same,TEAE headache,[3]; first study,10%
same,TEAE nausea,[3]; first study,14.3%
same,TEAE peripheral edema,[3]; first study,15%
same,early study discontinuation due to adverse reactions,[3]; in vivo,6%
same,mean amount recovered in 24-h urine after last dose,[4],0.06-0.1 % of dose
same,administered dose recovered in urine,[4]; 7 days,less than 0.1%
same,inhibition of transport of a model P-gp substrate,P-gp transporter,only partially inhibited
same,female mice with ruffled fur and hunched appearance,Tg.rasH2 mice,2/25
same,effect on HE grade,patients with HE,significant improvement in overall HE grade
same,effect on blood ammonia,patients with HE,statistically significant blood ammonia reduction; also recorded: lowers ammonia levels
same,effect on blood ammonia,patients with HE; listed as Rifaximin,decreased blood ammonia
same,effect on HE grade,patients with HE; listed as Rifaximin,improvement in HE grade
same,rescue treatment with ciprofloxacin,Shigella flexneri 2a,eight subjects received rescue treatment
same,toxic effects,rabbits,negligible toxic effects
same,"subjects with worsening asterixis by 1, 2, or 4 grades",[5],6.8%
same,CYP3A4 induction in vivo / midazolam exposure,CYP3A4,only slightly reduced exposure; also recorded: weak inducer of CYP3A4
